Measurements taken from US8361487B1, “Ant controllers and method for application thereof” (BASF Aktiengesellschaft, priority 1999, dated 2013).

Each compound was assayed on Coptotermes formosanus Shiraki (assay: Test Example 1: termite-killing test on treated filter paper). Details: mortality class; 1 ml of a 500 ppm solution on filter paper, seven days after inoculation, triplicate group of 10 insects.
Assay type: in vivo
Experimental: A filter paper was spread in a glass dish having a diameter of 9 cm, onto which was dropped 1 ml of a 500 ppm solution of the ant controller of the present invention. Then, the filter paper was inoculated with Coptotermes formosanus Shiraki. Seven days after the inoculation, percentage of dead insects was investigated, from which mortality was calculated. The test was carried out with triplicate group of 10 insects.
For `N#Cc1ccc(CC(=NNC(=S)Nc2ccc(Cl)cc2)c2ccccc2)cc1` [Compound 6], the Termite-killing effect was “A (100)”. For `CN(C(=O)C=NN(Cc1ccc(C#N)cc1)c1cccc(C(F)(F)F)c1)c1ccc(Cl)cc1` [Compound 141], the Termite-killing effect was “D (79-50)”. `O=C(CNN(Cc1ccc(Cl)cc1)c1ccccc1)Nc1ccc(OC(F)(F)F)cc1` [Compound 144] was tested, and the Termite-killing effect was “B (99-90)”. For `N#Cc1ccc(CC(=NNC(=O)Nc2ccc(S(=O)(=O)C(F)(F)F)cc2)c2ccc(F)cc2)cc1` [Compound 78], the Termite-killing effect was “A (100)”. `N#Cc1ccc(CN(N=CC(=O)Nc2ccc(SC(F)(F)F)cc2)c2cccc(Cl)c2)cc1` [Compound 132] was tested, and the Termite-killing effect was “A (100)”. With `N#Cc1ccc(CC(=NNC(=O)Nc2ccc([S+]([O-])C(F)(F)F)cc2)c2cccc(Cl)c2)cc1` (centres unmarked) [Compound 79] the Termite-killing effect was “B (99-90)”. With `CC(C(=NNC(=O)Nc1ccc(OC(F)(F)F)cc1)c1ccccc1)c1ccccc1` (centres unmarked) [Compound 51] the Termite-killing effect was “A (100)”. In the case of `N#Cc1ccc(CC(=NNC(=O)Nc2ccc(SC(F)(F)F)cc2)c2cccc(Br)c2)cc1` [Compound 28], the Termite-killing effect is reported as “C (89-80)”. For `O=C(NN=C(Cc1ccccc1)c1cccc(Cl)c1)Nc1ccc(OC(F)(F)F)cc1` [Compound 15], the Termite-killing effect was “B (99-90)”. `N#Cc1cccc(CC(NNC(=O)Nc2ccc(OC(F)(F)F)cc2)c2ccccc2)c1` (centres unmarked) [Compound 112] was tested, and the Termite-killing effect was “A (100)”. `N#Cc1ccc(CN(NCC(=O)Nc2ccc(Cl)cc2)c2cccc(F)c2)cc1` [Compound 153] was tested, and the Termite-killing effect was “A (100)”. `CC(C(=NNC(=O)Nc1ccc(OC(F)(F)F)cc1)c1ccccc1)c1ccc(Cl)cc1` (centres unmarked) [Compound 54] was tested, and the Termite-killing effect was “A (100)”. `O=C(NN=C(Cc1ccccc1)c1cccc(F)c1)Nc1ccc(Cl)cc1` [Compound 31] was tested, and the Termite-killing effect was “A (100)”. `N#Cc1ccc(CN(N=CC(=O)Nc2ccc(OC(F)(F)F)cc2)c2cccc(C(F)(F)F)c2)cc1` [Compound 139] was tested, and the Termite-killing effect was “A (100)”. With `N#Cc1ccc(CN(N=CC(=O)Nc2ccc(Cl)cc2)c2cccc(F)c2)cc1` [Compound 134] the Termite-killing effect was “A (100)”. `N#Cc1ccc(CN(N=CC(=O)Nc2ccc(OC(F)(F)F)cc2)c2cccc(F)c2)cc1` [Compound 135] was tested, and the Termite-killing effect was “B (99-90)”. `O=C(NNC(Cc1ccc(Cl)cc1)c1cccc(Cl)c1)Nc1ccc(OC(F)(F)F)cc1` (racemic) [Compound 90] was tested, and the Termite-killing effect was “A (100)”. With `O=C(NN=C(c1ccccc1)C(O)c1ccc(Cl)cc1)Nc1ccc(OC(F)(F)F)cc1` (centres unmarked) [Compound 60] the Termite-killing effect was “C (89-80)”. `N#Cc1ccc(CC(=NNC(=O)Nc2ccc([S+]([O-])C(F)(F)F)cc2)c2cccc(C(F)(F)F)c2)cc1` (centres unmarked) [Compound 81] was tested, and the Termite-killing effect was “A (100)”. With `N#Cc1ccc(CC(=NNC(=O)Nc2ccc([S+]([O-])C(F)(F)F)cc2)c2cccc(F)c2)cc1` (centres unmarked) [Compound 77] the Termite-killing effect was “A (100)”. For `N#Cc1ccc(CC(=NNC(=O)Nc2ccc(SC(F)(F)F)cc2)c2cccc(Cl)c2)cc1` [Compound 21], the Termite-killing effect was “A (100)”. With `CC(=O)N(NC(=O)Nc1ccc(OC(F)(F)F)cc1)C(Cc1ccc(C#N)cc1)c1cccc(Cl)c1` (centres unmarked) [Compound 101] the Termite-killing effect was “A (100)”. `Cc1cccc(N(Cc2ccc(C#N)cc2)N=CC(=O)Nc2ccc(Cl)cc2)c1` [Compound 136] was tested, and the Termite-killing effect was “A (100)”. `CC(C)OC(C(=NNC(=O)Nc1ccc(OC(F)(F)F)cc1)c1ccccc1)c1ccccc1` (racemic) [Compound 69] was tested, and the Termite-killing effect was “B (99-90)”. `N#Cc1ccccc1CN(N=CC(=O)Nc1ccc(OC(F)(F)F)cc1)c1cccc(Cl)c1` [Compound 142] was tested, and the Termite-killing effect was “C (89-80)”. `N#Cc1ccc(CN(NCC(=O)Nc2ccc(OC(F)(F)F)cc2)c2cccc(C(F)(F)F)c2)cc1` [Compound 158] was tested, and the Termite-killing effect was “C (89-80)”. For `O=C(NN=C(c1ccccc1)C(O)c1ccc(Cl)cc1)Nc1ccc(OC(F)(F)F)cc1` (racemic) [Compound 61], the Termite-killing effect was “A (100)”. With `O=C(NN=C(Cc1ccccc1)c1cccc(Br)c1)Nc1ccc(OC(F)(F)F)cc1` [Compound 25] the Termite-killing effect was “D (79-50)”. `N#Cc1ccc(CC(=NNC(=O)Nc2ccc(S(=O)(=O)C(F)(F)F)cc2)c2cccc(Br)c2)cc1` [Compound 30] was tested, and the Termite-killing effect was “A (100)”. For `N#Cc1ccc(C(O)C(=NNC(=O)Nc2ccc(Cl)cc2)c2ccccc2)cc1` (racemic) [Compound 62], the Termite-killing effect was “A (100)”. In the case of `N#Cc1ccc(CC(NNC(=O)Nc2ccc(S(=O)(=O)C(F)(F)F)cc2)c2cccc(Cl)c2)cc1` (centres unmarked) [Compound 94], the Termite-killing effect is reported as “A (100)”. In the case of `O=C(NN=C(c1ccccc1)C(O)c1ccccc1)Nc1ccc(Cl)cc1` (centres unmarked) [Compound 57], the Termite-killing effect is reported as “D (79-50)”. In the case of `N#Cc1ccc(CN(N=CC(=O)Nc2ccc(Cl)cc2)c2cccc(C(F)(F)F)c2)cc1` [Compound 138], the Termite-killing effect is reported as “A (100)”. In the case of `COC(C(=NNC(=O)Nc1ccc(Cl)cc1)c1ccccc1)c1ccccc1` (racemic) [Compound 66], the Termite-killing effect is reported as “A (100)”. For `O=C(NNC(Cc1ccccc1[N+](=O)[O-])c1ccccc1)Nc1ccc(OC(F)(F)F)cc1` (centres unmarked) [Compound 113], the Termite-killing effect was “A (100)”. For `Cc1cccc(N(Cc2ccc(C#N)cc2)NCC(=O)Nc2ccc(Cl)cc2)c1` [Compound 155], the Termite-killing effect was “A (100)”. `O=C(NN=C(c1ccccc1)C(O)c1ccccc1)Nc1ccc(OC(F)(F)F)cc1` (centres unmarked) [Compound 58] was tested, and the Termite-killing effect was “A (100)”. For `N#Cc1ccc(CN(NCC(=O)Nc2ccc(Cl)cc2)c2cccc(C(F)(F)F)c2)cc1` [Compound 157], the Termite-killing effect was “A (100)”. In the case of `O=C(C=NN(Cc1ccc(Cl)cc1)c1cccc(Cl)c1)Nc1ccc(OC(F)(F)F)cc1` [Compound 127], the Termite-killing effect is reported as “A (100)”. For `N#Cc1ccc(CC(NNC(=O)Nc2ccc(S(=O)(=O)C(F)(F)F)cc2)c2cccc(C(F)(F)F)c2)cc1` (centres unmarked) [Compound 120], the Termite-killing effect was “A (100)”. `N#Cc1ccc(CN(N=CC(=O)Nc2ccc(Cl)cc2)c2cccc(Cl)c2)cc1` [Compound 130] was tested, and the Termite-killing effect was “C (89-80)”. With `O=C(NN=C(Cc1ccccc1)c1cccc(C(F)(F)F)c1)Nc1ccc(OC(F)(F)F)cc1` [Compound 43] the Termite-killing effect was “A (100)”. With `N#Cc1ccc(CC(=NNC(=O)Nc2ccc(Cl)cc2)c2cccc(I)c2)cc1` [Compound 36] the Termite-killing effect was “B (99-90)”. For `O=C(CNN(Cc1ccc([N+](=O)[O-])cc1)c1cccc(Cl)c1)Nc1ccc(Cl)cc1` [Compound 149], the Termite-killing effect was “A (100)”. In the case of `Cc1cccc(C(Cc2ccccc2)=NNC(=O)Nc2ccc(OC(F)(F)F)cc2)c1` [Compound 39], the Termite-killing effect is reported as “A (100)”. `N#Cc1ccc(CC(=NNC(=S)Nc2ccc(OC(F)(F)F)cc2)c2ccccc2)cc1` [Compound 7] was tested, and the Termite-killing effect was “A (100)”. With `CN(C(=O)NN=C(Cc1ccccc1)c1ccccc1)c1ccc(Cl)cc1` [Compound 46] the Termite-killing effect was “A (100)”. With `N#Cc1ccc(CC(=NNC(=O)Nc2ccc([S+]([O-])C(F)(F)F)cc2)c2cccc(Cl)c2)cc1` (centres unmarked) [Compound 22] the Termite-killing effect was “B (99-90)”. `CN(N=C(c1ccccc1)C(O)c1ccccc1)C(=O)Nc1ccc(OC(F)(F)F)cc1` (racemic) [Compound 75] was tested, and the Termite-killing effect was “A (100)”. For `N#Cc1ccc(CC(NNC(=S)Nc2ccc(OC(F)(F)F)cc2)c2cccc(Cl)c2)cc1` (centres unmarked) [Compound 99], the Termite-killing effect was “A (100)”. For `O=C(NN=C(Cc1ccccc1)c1cccc(F)c1)Nc1ccc(OC(F)(F)F)cc1` [Compound 32], the Termite-killing effect was “A (100)”. With `N#Cc1ccc(CC(=NNC(=O)Nc2ccc(OC(F)(F)F)cc2)c2cccc(Br)c2)cc1` [Compound 27] the Termite-killing effect was “A (100)”. With `N#Cc1ccc(CC(NNC(=S)Nc2ccc(OC(F)(F)F)cc2)c2cccc(C(F)(F)F)c2)cc1` (centres unmarked) [Compound 100] the Termite-killing effect was “A (100)”. In the case of `N#Cc1ccc(CC(NNC(=O)Nc2ccc(SC(F)(F)F)cc2)c2cccc(C(F)(F)F)c2)cc1` (centres unmarked) [Compound 97], the Termite-killing effect is reported as “A (100)”. `N#Cc1ccc(CC(=NNC(=O)Nc2ccc(OC(F)(F)F)cc2)c2cccc(C(F)(F)F)c2)cc1` [Compound 82] was tested, and the Termite-killing effect was “B (99-90)”. In the case of `O=C(CNN(Cc1ccc(Cl)cc1)c1cccc(Cl)c1)Nc1ccc(Cl)cc1` [Compound 147], the Termite-killing effect is reported as “A (100)”. For `O=C(C=NN(Cc1ccc([N+](=O)[O-])cc1)c1cccc(Cl)c1)Nc1ccc(Cl)cc1` [Compound 128], the Termite-killing effect was “A (100)”. With `N#Cc1ccc(CC(NNC(=O)Nc2ccc(OC(F)(F)F)cc2)c2ccccc2)cc1` (racemic) [Compound 87] the Termite-killing effect was “C (89-80)”. With `N#Cc1ccc(CC(=NNC(=O)Nc2ccc(OC(F)(F)F)cc2)c2cccc(F)c2)cc1` [Compound 35] the Termite-killing effect was “A (100)”. `O=C(NN=C(c1ccccc1)C(OC(=O)c1ccccc1)c1ccccc1)Nc1ccc(OC(F)(F)F)cc1` (racemic) [Compound 73] was tested, and the Termite-killing effect was “A (100)”. With `N#Cc1ccc(CN(N=CC(=O)Nc2ccc(OC(F)(F)F)cc2)c2ccccc2)cc1` [Compound 125] the Termite-killing effect was “A (100)”. `N#Cc1ccc(CC(NNC(=O)Nc2ccc([S+]([O-])C(F)(F)F)cc2)c2cccc(F)c2)cc1` (centres unmarked) [Compound 116] was tested, and the Termite-killing effect was “B (99-90)”. For `CC(C(=NNC(=O)Nc1ccc(OC(F)(F)F)cc1)c1ccccc1)c1ccccc1` (mixture of isomers) [Compound 50], the Termite-killing effect was “A (100)”. For `N#Cc1ccc(CC(NNC(=O)Nc2ccc(OC(F)(F)F)cc2)c2cccc(C(F)(F)F)c2)cc1` (single isomer, unassigned) [Compound 118], the Termite-killing effect was “D (79-50)”. In the case of `N#Cc1ccc(CC(=NNC(=S)Nc2ccc(OC(F)(F)F)cc2)c2cccc(C(F)(F)F)c2)cc1` [Compound 45], the Termite-killing effect is reported as “A (100)”. For `CN(C(=O)NN=C(Cc1ccccc1)c1ccccc1)c1ccc(OC(F)(F)F)cc1` [Compound 47], the Termite-killing effect was “A (100)”. For `CC(C(=NNC(=S)Nc1ccc(OC(F)(F)F)cc1)c1ccccc1)c1ccccc1` (racemic) [Compound 65], the Termite-killing effect was “C (89-80)”. In the case of `CC(=NN(Cc1ccc(C#N)cc1)c1cccc(Cl)c1)C(=O)Nc1ccc(OC(F)(F)F)cc1` [Compound 140], the Termite-killing effect is reported as “A (100)”.
